Reference: patent US20250327140A1, “A METHOD OF DETERMINING THE DOSE OF PSYCHEDELICS” (priority 2022, published 2025)

Experiments:
ABCF1 [1] = test: qPCR of ABCF1 transcription in macrophage cell line RAW264.7, dose response with psychedelics; type: cell-based, murine; details: RAW264.7, 10 nM, 100 nM, 500 nM, 2 hours post treatment
Method: • 1. Macrophage cell line RAW264.7 (ATCC) were grown to 80% confluency in growth media (DMEM+10% FBS+glutamine). • 2. Dilutions of the drugs were made at desired final concentrations for a Dose response experiment. The concentrations' used for this experiment are: 10 nM, 100 nM, 500 nM for Psilocin, Psylocibin, 4-Acetoxy-N, N-dimthyltryptamine, O-Acetyl Psilocin Fumerate, and 4-acetoxyindole. • 3. Untreated cells were used as negative control and Escitalopram at 0.3 mM was used as a positive control to activate ABCF1 expression for all the experiments. Analysis by qPCR:
• 1. 2 hours post treatment with drugs, the reaction was stopped by removing the media with the drug. Cells were then collected and RNA was isolated from these. • 2. After checking the quality of the RNA, cDNA was generated and qPCR was run with ABCF1 primers as the target gene and GAPDH as the house keeping gene. • 3. Normalized against the expression level of GAPDH, the fold change expression level of ABCF1 was calculated and tabulated for all treatment conditions.

[2] = system: ABCF1 promoter (eGFP reporter); test: DC2.4 cells transfected with ABCF1-GFP reporter construct, drug screening by fluorescence; type: cell-based; details: for induction of ABCF1-EGFP-IRES (FIG. 11): DC2.4 cells with ABCF1 GFP construct
Text: Cells for use in a high-throughput cell-based screening assay to screen for drugs and genes that stimulate ABCF1 expression were created. In particular, the cells comprise a construct comprising the ABCF1 promoter linked to the sequence encoding eGFP. In the assay, drugs/compositions may be screened for modulating expression of ABCF1 by measuring fluorescence. • 1. DC2.4 cell line was used for the ABCF1-GFP vector (FIG. 7) transfection. DC 2.4 cell line was used as these cells have low endogenous ABCF1 expression. • 2. After 3 days, based on the fluorescent signal, those transfected cells were single cell sorted using cell sorter, compared with DC2.4 cell line without transfection as a negative control. (Those cells with some fluorescent signals were transfected successfully as expected) • 3. Those single cells were collected in a 96 well plate and grown around 2 weeks using DMEM+10% FBS+1% PS, and 12 colonies were picked. • 4. Expended 12 colonies into 24 well plate to grow continuously around 2 weeks with DMEM+10% FBS+1% PS+[…] Hygromycin (selection antibiotics which inserted in the vector) to keep the majority of cells which containing the vector. • 5. 5 colonies were growing well and checked the colonies ABCF1 expression level (checked the GFP reporter in between negative control and positive control (50 uM and 100 μM) to see which colonies is the best to be drug screening cell). • See FIGS. 8 to 11.

ABCF1 [3] = test: real time RT-PCR specific for ABCF1 and IL-4 in RAW macrophages incubated with Escitalopram; type: cell-based, murine; details: 0.3 mM, 1 hour
Method: RAW macrophages were plated at 1×10^5 cells/well and cultured for 2 days. The cells were incubated with 0.3 mM Escitalopram for 1 hour, and then harvested for total RNA, which was extracted for real time RT-PCR specific for ABCF1 and IL-4. CT values were normalized with CT value for the housekeeping gene from the DMSO control.

Compound | ABCF1 transcription (fold change vs GAPDH) (ABCF1 [1]) | induction of ABCF1-EGFP-IRES (FIG. 11) [2] | ABCF1 upregulation (FIG. 10) ([2]; after 1 hour drug treatment) | difference in ABCF1 and IL-4 expression after drug treatment (macrophage polarization) (ABCF1 [3]; consistent in 3 separate experiments) | ABCF1 induction in a macrophage cell line (ABCF1 [3]; real time RT-PCR)
CN(C)CCc1c[nH]c2cccc(O)c12 [psylocin, Psilocin] | upregulate | – | – | – | –
CC(=O)Oc1cccc2[nH]ccc12 [AOI, 4-acetoxyindole] | – | induction | upregulates | – | –
CN(C)CCC[C@@]1(c2ccc(F)cc2)OCc2cc(C#N)ccc21 [Escitalopram] | – | induction | – | consistent with polarization towards an M2-like phenotype | Induces
